Biological target: T1, PIP4K2C (Homo sapiens, UniProt Q8TBX8)
T1 sequence (Q8TBX8 1-421): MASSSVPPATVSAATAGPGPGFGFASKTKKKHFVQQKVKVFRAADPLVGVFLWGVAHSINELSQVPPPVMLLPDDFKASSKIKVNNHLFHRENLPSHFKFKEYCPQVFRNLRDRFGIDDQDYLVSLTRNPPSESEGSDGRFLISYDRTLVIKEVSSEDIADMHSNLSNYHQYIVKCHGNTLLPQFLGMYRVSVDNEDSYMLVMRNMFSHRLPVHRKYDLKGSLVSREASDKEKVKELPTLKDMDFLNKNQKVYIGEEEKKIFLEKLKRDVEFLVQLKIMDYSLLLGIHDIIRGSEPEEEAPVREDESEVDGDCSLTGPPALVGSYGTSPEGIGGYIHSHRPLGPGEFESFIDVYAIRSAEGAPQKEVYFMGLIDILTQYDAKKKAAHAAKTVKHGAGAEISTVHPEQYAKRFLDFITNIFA
Test: HiBiT PIP4K2C degradation assay in MOLT-4 cells (endogenous PIP4K2C C-terminally tagged with HiBiT)
Format: cell-based
Parameters: untagged in primary human PBMCs and monocyte-derived dendritic cells
Details: 6 hours of incubation time, rather than 24 hours; MOLT-4, top concentration 10 micromolar; read-out: HiBIT-degradation MOLT4 PIP4k2C DC50 (6 hours, marked *)
Outline: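 MOLT-4 cells with endogenous PIP4K2C C-terminally HiBiT-tagged by CRISPR were treated with a 10-point, 3-fold dilution series from 10 micromolar, in duplicate, for 24 h or 6 h at 37 C. Remaining tagged protein read by HiBiT lytic luminescence; DC50 from Hill-equation fit.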

Q: For O=C1CCC(Nc2ccc(N3CCN(C4CCN(C(=O)O[C@H]5CC[C@H](Nc6ncc(F)c(-c7cccc(-n8ccccc8=O)c7)n6)CC5)CC4)CC3)c(F)c2)C(=O)N1 (stereo partly drawn) [Compound 475, trans-4-((5-fluoro-4-(3-(2-oxopyridin-1 (2H)-yl)phenyl)pyrimidin-2-yl)amino)cyclohexyl 4-(4-(4-((2,6-dioxopiperidin-3-yl)amino)-2-fluorophenyl)piperazin-1-yl)piperidine-1-carboxylate], which DC50 is on record?
A: The DC50 was under 0.5 µM.

Q: For O=C1CCC(Nc2ccc(N3CCC(N4CCC(NC(=O)[C@H]5CC[C@H](Nc6ncc(F)c(-c7cccc(N8CCOCC8=O)c7)n6)CC5)CC4)C(F)C3)c(F)c2)C(=O)N1 (stereo partly drawn) [Compound 476, trans-N-(1′-(4-((2,6-dioxopiperidin-3-yl)amino)-2-fluorophenyl)-3′-fluoro-[1,4′-bipiperidin]-4-yl)-4-((5-fluoro-4-(3-(3-oxomorpholino)phenyl)pyrimidin-2-yl)amino)cyclohexane-1-carboxamide], which DC50 is on record?
A: The DC50 was under 0.5 µM.

Q: Which DC50 does the source give for O=C1CCC(Nc2ccc(C3CCN(CC4CCN(C(=O)[C@H]5CC[C@H](Nc6ncc(F)c(-c7cccc(N8CCCCC8)c7)n6)CC5)CC4)CC3)c(F)c2)C(=O)N1 (stereo partly drawn) [Compound 477, trans-3-((3-fluoro-4-(1-((1-(trans-4-((5-fluoro-4-(3-(piperidin-1-yl)phenyl)pyrimidin-2-yl)amino)cyclohexane-1-carbonyl)piperidin-4-yl)methyl)piperidin-4-yl)phenyl)amino)piperidine-2,6-dione] here?
A: The DC50 was under 0.5 µM.

Q: Which DC50 does the source give for CN(C(=O)[C@H]1CC[C@H](N2CCN(c3ccc(NC4CCC(=O)NC4=O)cc3F)CC2)CC1)[C@H]1CC[C@H](Nc2ncc(F)c(-c3cccc(C4CC4)c3)n2)CC1 (stereo partly drawn) [Compound 478, trans-N-((trans)-4-((4-(3-cyclopropylphenyl)-5-fluoropyrimidin-2-yl)amino)cyclohexyl)-4-(4-(4-((2,6-dioxopiperidin-3-yl)amino)-2-fluorophenyl)piperazin-1-yl)-N-methylcyclohexane-1-carboxamide] here?
A: The DC50 was under 0.5 µM.

Q: Which DC50 does the source give for O=C1CCC(Nc2ccc(C3CCN([C@H]4CC[C@H](NC(=O)[C@H]5CC[C@H](Nc6ncc(F)c(-c7cccc(C8(O)CCC8)n7)n6)CC5)CC4)CC3)c(F)c2)C(=O)N1 (stereo partly drawn) [Compound 479, trans-N-((trans)-4-(4-(4-((2,6-dioxopiperidin-3-yl)amino)-2-fluorophenyl)piperidin-1-yl)cyclohexyl)-4-((5-fluoro-4-(6-(1-hydroxycyclobutyl)pyridin-2-yl)pyrimidin-2-yl)amino)cyclohexane-1-carboxamide] here?
A: Its DC50 is under 0.5 µM.

Q: How did the DC50 turn out when O=C1CCC(Nc2ccc(C3CCN([C@H]4CC[C@H](NC(=O)[C@H]5CC[C@H](Nc6ncc(F)c(-c7ccnc(N8CCOCC8=O)c7)n6)CC5)CC4)CC3)c(F)c2)C(=O)N1 (stereo partly drawn) [Compound 480, trans-N-((trans)-4-(4-(4-((2,6-dioxopiperidin-3-yl)amino)-2-fluorophenyl)piperidin-1-yl)cyclohexyl)-4-((5-fluoro-4-(2-(3-oxomorpholino)pyridin-4-yl)pyrimidin-2-yl)amino)cyclohexane-1-carboxamide] was run?
A: Its DC50 is under 0.5 µM.

Q: How did the DC50 turn out when O=C1CCC(Nc2ccc(C3CCN(CC4(O)CCN(C(=O)[C@H]5CC[C@H](Nc6ncc(F)c(-c7cccc(C(=O)N8CC[C@H](O)C8)c7)n6)CC5)CC4)CC3)c(F)c2)C(=O)N1 (stereo partly drawn) [Compound 481, trans-3-((3-fluoro-4-(1-((1-(4-((5-fluoro-4-(3-((S)-3-hydroxypyrrolidine-1-carbonyl)phenyl)pyrimidin-2-yl)amino)cyclohexane-1-carbonyl)-4-hydroxypiperidin-4-yl)methyl)piperidin-4-yl)phenyl)amino)piperidine-2,6-dione] was run?
A: The DC50 was under 0.5 µM.

Q: With O=C1CCC(Nc2ccc(N3CCN(CC4(O)CCN(C(=O)[C@H]5CC[C@H](Nc6ncc(F)c(-c7cccc(C(=O)N8CC[C@H](O)C8)c7)n6)CC5)CC4)CC3)c(F)c2)C(=O)N1 (stereo partly drawn) [Compound 482, trans-3-((3-fluoro-4-(4-((1-(4-((5-fluoro-4-(3-((S)-3-hydroxypyrrolidine-1-carbonyl)phenyl)pyrimidin-2-yl)amino)cyclohexane-1-carbonyl)-4-hydroxypiperidin-4-yl)methyl)piperazin-1-yl)phenyl)amino)piperidine-2,6-dione] as the compound, how does the DC50 read?
A: The DC50 was under 0.5 µM.

Q: Which DC50 does the source give for O=C1CCC(Nc2ccc(N3CCN(CC4CCN(C(=O)[C@H]5CC[C@H](Nc6ncc(F)c(-c7cccc(C(=O)N8CC[C@H](O)C8)c7)n6)CC5)CC4)CC3)c(F)c2)C(=O)N1 (stereo partly drawn) [Compound 483, trans-3-((3-fluoro-4-(4-((1-(4-((5-fluoro-4-(3-((S)-3-hydroxypyrrolidine-1-carbonyl)phenyl)pyrimidin-2-yl)amino)cyclohexane-1-carbonyl)piperidin-4-yl)methyl)piperazin-1-yl)phenyl)amino)piperidine-2,6-dione] here?
A: The DC50 was under 0.5 µM.

Q: Which DC50 does the source give for O=C1CCC(Nc2ccc(N3CCN(CC4(F)CCN(C(=O)[C@H]5CC[C@H](Nc6ncc(F)c(-c7cccc(-c8ccccc8)c7)n6)CC5)CC4)CC3)c(F)c2)C(=O)N1 (stereo partly drawn) [Compound 484, trans-3-[3-fluoro-4-[4-[[4-fluoro-1-[4-[[5-fluoro-4-(3-phenylphenyl)pyrimidin-2-yl]amino]cyclohexanecarbonyl]-4-piperidyl]methyl]piperazin-1-yl]anilino]piperidine-2,6-dione] here?
A: Its DC50 is under 0.5 µM.

Q: With O=C1CCC(Nc2ccc(N3CCN(CC4CCN(C(=O)[C@H]5CC[C@H](Nc6ncc(F)c(-c7cccc(-c8ccccc8)c7)n6)CC5)CC4)CC3)c(F)c2)C(=O)N1 (stereo partly drawn) [Compound 485, trans-3-((4-(4-((1-(4-((4-([1,1′-biphenyl]-3-yl)-5-fluoropyrimidin-2-yl)amino)cyclohexane-1-carbonyl)piperidin-4-yl)methyl)piperazin-1-yl)-3-fluorophenyl)amino)piperidine-2,6-dione] as the compound, how does the DC50 read?
A: Its DC50 is under 0.5 µM.

Q: How did the DC50 turn out when O=C1CCC(Nc2ccc(C3CCN(CC4(F)CCN(C(=O)[C@H]5CC[C@H](Nc6ncc(F)c(-c7cccc(-n8ccccc8=O)c7)n6)CC5)CC4)CC3)c(F)c2)C(=O)N1 (stereo partly drawn) [Compound 487, trans-3-((3-fluoro-4-(1-((4-fluoro-1-(4-((5-fluoro-4-(3-(2-oxopyridin-1(2H)-yl)phenyl)pyrimidin-2-yl)amino)cyclohexane-1-carbonyl)piperidin-4-yl)methyl)piperidin-4-yl)phenyl)amino)piperidine-2,6-dione] was run?
A: The DC50 was under 0.5 µM.

Q: CN(C(=O)[C@H]1CC[C@H](Nc2ncc(F)c(-c3cccc(-n4ccccc4=O)c3)n2)CC1)[C@H]1CC[C@H](N2CCN(c3ccc(NC4CCC(=O)NC4=O)cc3F)CC2)CC1 (stereo partly drawn) [Compound 488, trans-(1r,4R)—N-((1r,4R)-4-(4-(4-((2,6-dioxopiperidin-3-yl)amino)-2-fluorophenyl)piperazin-1-yl)cyclohexyl)-4-((5-fluoro-4-(3-(2-oxopyridin-1(2H)-yl)phenyl)pyrimidin-2-yl)amino)-N-methylcyclohexane-1-carboxamide] was tested. Which DC50 did it give?
A: Its DC50 is under 0.5 µM.

Q: Which DC50 does the source give for Cn1nc(C2CCC(=O)NC2=O)c2ccc(N3CCN(C[C@H]4CC[C@H](C(=O)N[C@H]5CC[C@H](Nc6ncc(F)c(-c7cccc(-n8ccccc8=O)c7)n6)CC5)CC4)CC3)cc21 (stereo partly drawn) [Compound 489, trans-(1r,4R)-4-((4-(3-(2,6-dioxopiperidin-3-yl)-1-methyl-1H-indazol-6-yl)piperazin-1-yl)methyl)-N-((1r,4R)-4-((5-fluoro-4-(3-(2-oxopyridin-1(2H)-yl)phenyl)pyrimidin-2-yl)amino)cyclohexyl)cyclohexane-1-carboxamide] here?
A: Its DC50 is under 0.5 µM.

Q: O=C1CCC(Nc2ccc(N3CCN([C@H]4CC[C@H](NC(=O)[C@H]5CC[C@H](Nc6ncc(F)c(-c7cccc(N8CCCOC8=O)c7)n6)CC5)CC4)CC3)c(F)c2)C(=O)N1 (stereo partly drawn) [Compound 490, trans-N-(trans-4-(4-(4-((2,6-dioxopiperidin-3-yl)amino)-2-fluorophenyl)piperazin-1-yl)cyclohexyl)-4-((5-fluoro-4-(3-(2-oxo-1,3-oxazinan-3-yl)phenyl)pyrimidin-2-yl)amino)cyclohexane-1-carboxamide] was tested. Which DC50 did it give?
A: Its DC50 is under 0.5 µM.

Q: How did the DC50 turn out when O=C1CCC(Nc2ccc(N3CCN(CC4(F)CCN(C(=O)[C@H]5CC[C@H](Nc6ncc(F)c(-c7cccc(N8CCCCC8)c7)n6)CC5)CC4)CC3)c(F)c2)C(=O)N1 (stereo partly drawn) [Compound 491, trans-3-((3-fluoro-4-(4-((4-fluoro-1-(4-((5-fluoro-4-(3-(piperidin-1-yl)phenyl)pyrimidin-2-yl)amino)cyclohexane-1-carbonyl)piperidin-4-yl)methyl)piperazin-1-yl)phenyl)amino)piperidine-2,6-dione] was run?
A: Its DC50 is under 0.5 µM.

Q: For O=C1CCC(Nc2ccc(N3CCN(CC4(O)CCN(C(=O)[C@H]5CC[C@H](Nc6ncc(F)c(-c7cccc(C8CC8)c7)n6)CC5)CC4)CC3)c(F)c2)C(=O)N1 (stereo partly drawn) [Compound 492, trans-3-((4-(4-((1-(4-((4-(3-cyclopropylphenyl)-5-fluoropyrimidin-2-yl)amino)cyclohexane-1-carbonyl)-4-hydroxypiperidin-4-yl)methyl)piperazin-1-yl)-3-fluorophenyl)amino)piperidine-2,6-dione], which DC50 is on record?
A: The DC50 was under 0.5 µM.

Q: With O=C1CCC(Nc2ccc(N3CCN(CC4(O)CCN(C(=O)[C@H]5CC[C@H](Nc6ncc(F)c(-c7cccc(N8CCCCC8)c7)n6)CC5)CC4)CC3)c(F)c2)C(=O)N1 (stereo partly drawn) [Compound 493, trans-3-[3-fluoro-4-[4-[[1-[4-[[5-fluoro-4-[3-(1-piperidyl)phenyl]pyrimidin-2-yl]amino]cyclohexanecarbonyl]-4-hydroxy-4-piperidyl]methyl]piperazin-1-yl]anilino]piperidine-2,6-dione] as the compound, how does the DC50 read?
A: The DC50 was under 0.5 µM.
